The subject of the assay is P388 leukemia ip, CD2F1 mice, survival T/C. The assay is described as follows: NCI In Vivo Anticancer Drug Screen. Data for tumor model P388 Leukemia (intraperitoneal) in CD2F1 (CDF1) mice. The conditions noted are these: endpoint: median survival time, higher = longer survival. A digest of the protocol:
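Mice carrying the transplanted tumor received test compound or vehicle. Survival was recorded in each group, and the value is the treated-group measurement divided by that of the vehicle-treated control group.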

Setting [1] is: dose: 50.0 mg/kg/injection, schedule: Q01DX009 (ip), vehicle: saline with Tween-80.
The mark [2] stands for this setting: dose: 100.0 mg/kg/injection, schedule: Q01DX009 (ip), vehicle: saline with Tween-80.
Where [3] appears, read: dose: 200.0 mg/kg/injection, schedule: Q01DX009 (ip), vehicle: saline with Tween-80.
The mark [4] stands for this setting: dose: 100.0 mg/kg/injection, schedule: Q01DX001 (ip), vehicle: saline with Tween-80.
Where [5] appears, read: dose: 200.0 mg/kg/injection, schedule: Q01DX001 (ip), vehicle: saline with Tween-80.
Where [6] appears, read: dose: 400.0 mg/kg/injection, schedule: Q01DX001 (ip), vehicle: saline with Tween-80.
[7] abbreviates: dose: 60.0 mg/kg/injection, schedule: Q01DX005 (ip), vehicle: saline with Tween-80.
The mark [8] stands for this setting: dose: 120.0 mg/kg/injection, schedule: Q01DX005 (ip), vehicle: saline with Tween-80.
Setting [9] is: dose: 240.0 mg/kg/injection, schedule: Q01DX005 (ip), vehicle: saline with Tween-80.
The mark [10] stands for this setting: dose: 25.0 mg/kg/injection, schedule: Q01DX009 (ip), vehicle: water.
Where [11] appears, read: dose: 50.0 mg/kg/injection, schedule: Q01DX009 (ip), vehicle: water.
[12] abbreviates: dose: 100.0 mg/kg/injection, schedule: Q01DX009 (ip), vehicle: water.
The mark [13] stands for this setting: dose: 25.0 mg/kg/injection, schedule: Q01DX009 (ip), vehicle: saline with Tween-80.

“And” between values parts separate entries of the source, which are not always exact repeats. Equal values may be shown once. Toxic doses and inconclusive results are not listed.

Regarding `CN(NC(=O)C(=O)NCc1ccco1)C(=O)Nc1ccc(Cl)cc1`, the T/C was 103 % of control under setting [1], 100 % of control under setting [2] and 92 % of control under setting [3].

As for `CC(=O)O.CC(C)=CCC(OC(=O)C=C(C)C)c1cc(O)c2c(O)ccc(O)c2c1O.[Cr]` (stereo unspecified), the T/C is 93 % of control under setting [4], 93 % of control under setting [5] and 94 % of control under setting [6].

Turning to `COC(=O)/C(C(C)=O)=C(\OC(C)=O)c1ccc(OC)c(OC)c1`, the T/C under setting [7] is 94 % of control, the T/C under setting [8] was 100 % of control and the T/C under setting [9] is 92 % of control.

As to `CC(C)(C)N=C(CCN1CCCCC1)Nc1ccccc1Cl`, the T/C is, setting by setting: under setting [1], 116 % of control; under setting [2], 106 % of control; under setting [3], 102 % of control.

Turning to `O/N=C/c1cc(I)cc(I)c1O`, the T/C reads like this: (dose: 50.0 mg/kg/injection, schedule: Q01DX005 (ip), vehicle: saline with Tween-80) 90 % of control; (dose: 100.0 mg/kg/injection, schedule: Q01DX005 (ip), vehicle: saline with Tween-80) 99 % of control; (dose: 200.0 mg/kg/injection, schedule: Q01DX005 (ip), vehicle: saline with Tween-80) 99 % of control.

Regarding `CN(C)CC1=Nc2cccc3cccc(c23)N1`, the T/C under setting [7] is 102 % of control and the T/C under setting [8] was 106 % of control.

As for `COc1cc2c3c(c1OC)C(=O)C[C@@H]1CCCN(CC2)[C@H]31`, the T/C runs as follows: (dose: 12.5 mg/kg/injection, schedule: Q01DX005 (ip), vehicle: Klucel (hydroxypropylcellulose) (HPC)) 99 % of control; (dose: 25.0 mg/kg/injection, schedule: Q01DX005 (ip), vehicle: Klucel (hydroxypropylcellulose) (HPC)) 98 % of control.

Turning to `COc1cc2c(cc1OC)C(N)CCC2` (stereo unspecified), the T/C (dose: 6.25 mg/kg/injection, schedule: Q01DX009 (ip), vehicle: water) was 104 % of control; the T/C (dose: 12.5 mg/kg/injection, schedule: Q01DX009 (ip), vehicle: water) is 96 % of control; the T/C under setting [10] is 99 % of control; the T/C under setting [11] was 96 % of control; the T/C under setting [12] is 101 % of control.

In the case of `CC(C)[C@@]12O[C@@H]1CC13OC1[C@@H](O)CC[C@@]32O` (stereo partly specified), the T/C by setting is: (dose: 50.0 mg/kg/injection, schedule: Q01DX005 (ip), vehicle: saline) 105 % of control; (dose: 100.0 mg/kg/injection, schedule: Q01DX005 (ip), vehicle: saline) 99 % of control; (dose: 200.0 mg/kg/injection, schedule: Q01DX005 (ip), vehicle: saline) 103 % of control.

Turning to `CCCCc1[nH]nc(-c2n[nH]c(CCCC)c2C)c1C`, the T/C by setting is: under setting [7], 95 % of control; under setting [8], 100 % of control; under setting [9], 108 % of control.

With `CCOC(=O)c1c(-c2ccccc2)oc2ccc(NS(=O)(=O)c3ccccc3)cc12`, the T/C by setting is: under setting [4], 95 % of control; under setting [5], 104 % of control; under setting [6], 95 % of control.

As to `CCOC(=O)C(=NNc1cc(OC)c(Cl)cc1OC)C(=O)OCC`, the T/C is, setting by setting: (dose: 50.0 mg/kg/injection, schedule: Q01DX005 (ip), vehicle: Klucel (hydroxypropylcellulose) (HPC)) 94 % of control; (dose: 100.0 mg/kg/injection, schedule: Q01DX005 (ip), vehicle: Klucel (hydroxypropylcellulose) (HPC)) 94 % of control; (dose: 200.0 mg/kg/injection, schedule: Q01DX005 (ip), vehicle: Klucel (hydroxypropylcellulose) (HPC)) 94 % of control.

For `O=C1/C(=C/c2ccccc2)CCC/C1=C\c1ccccc1`, the T/C is 104 % of control under setting [13], 104 % of control under setting [1] and 100 % of control under setting [2].

Regarding `Cn1c(=O)c2[nH]c(/N=N/N(CCCl)CCCl)nc2n(C)c1=O`, the T/C (dose: 25.0 mg/kg/injection, schedule: Q01DX009 (ip), vehicle: saline) was 100 % of control; the T/C (dose: 50.0 mg/kg/injection, schedule: Q01DX009 (ip), vehicle: saline) was 100 % of control; the T/C (dose: 100.0 mg/kg/injection, schedule: Q01DX009 (ip), vehicle: saline) was 104 % of control; the T/C (dose: 200.0 mg/kg/injection, schedule: Q01DX009 (ip), vehicle: saline) is 107 % of control; the T/C (dose: 400.0 mg/kg/injection, schedule: Q01DX009 (ip), vehicle: saline) was 96 % of control.

In the case of `CC(=O)OCC1OC(S[As](C)C)C(OC(C)=O)C(OC(C)=O)C1OC(C)=O` (stereo unspecified), the T/C runs as follows: under setting [13], 114 % of control; under setting [1], 111 % of control; under setting [2], 116 % of control; under setting [3], 124 % of control.

Consider `O=C(O)CC[P+](c1ccccc1)(c1ccccc1)c1ccccc1`, for which the T/C was 105 % of control under setting [10]; 102 % of control under setting [11]; 105 % of control under setting [12]; 95 % of control (dose: 200.0 mg/kg/injection, schedule: Q01DX009 (ip), vehicle: water); 94 % of control (dose: 400.0 mg/kg/injection, schedule: Q01DX009 (ip), vehicle: water).

As for `O=C1C(CN2CCCCC2)=C(O)C(c2ccccc2)N1c1ccccc1` (stereo unspecified), the T/C is 96 % of control under setting [7], 95 % of control under setting [8] and 97 % of control under setting [9].

As to `CC(O)CN=Cc1ccccc1[O-].CC(O)CN=Cc1ccccc1[O-].[Cu+2]` (stereo unspecified), the T/C reads like this: (dose: 15.0 mg/kg/injection, schedule: Q01DX005 (ip), vehicle: saline with Tween-80) 95 % of control; (dose: 30.0 mg/kg/injection, schedule: Q01DX005 (ip), vehicle: saline with Tween-80) 94 % of control; under setting [7], 101 % of control and 89 % of control.

`COC(=O)c1ccc(=O)c2nc3/c(=C/O)c(O)c(C)c(=O)c3[nH]c12`: the T/C by setting is: (dose: 6.25 mg/kg/injection, schedule: Q01DX005 (ip), vehicle: other) 117 % of control; (dose: 12.5 mg/kg/injection, schedule: Q01DX005 (ip), vehicle: other) 122 % of control.

For the compound `O=C(O)C(O)C(O)C(O)C(O)c1nn[nH]n1` (stereo unspecified), the T/C runs as follows: (dose: 100.0 mg/kg/injection, schedule: Q01DX001 (ip), vehicle: saline) 101 % of control; (dose: 200.0 mg/kg/injection, schedule: Q01DX001 (ip), vehicle: saline) 98 % of control; (dose: 400.0 mg/kg/injection, schedule: Q01DX001 (ip), vehicle: saline) 93 % of control.

As for `Cc1ccc(C2(C)OC(CCl)CS2)c(C)c1` (stereo unspecified), the T/C reads like this: under setting [13], 101 % of control and 98 % of control; under setting [1], 104 % of control and 98 % of control; under setting [2], 105 % of control; under setting [3], 107 % of control and 119 % of control.

Turning to `COc1ccc2c(c1)-c1nn(CCCN(C)C)c3ccc([N+](=O)[O-])c(c13)N2`, the T/C runs as follows: (dose: 4.5 mg/kg/injection, schedule: Q01DX005 (ip), vehicle: water) 169 % of control; (dose: 6.25 mg/kg/injection, schedule: Q01DX005 (ip), vehicle: water) 189 % of control; (dose: 7.5 mg/kg/injection, schedule: Q01DX005 (ip), vehicle: water) 181 % of control; (dose: 12.5 mg/kg/injection, schedule: Q01DX005 (ip), vehicle: water) 213 % of control and 216 % of control and 227 % of control; (dose: 21.0 mg/kg/injection, schedule: Q01DX005 (ip), vehicle: water) 253 % of control; (dose: 25.0 mg/kg/injection, schedule: Q01DX005 (ip), vehicle: water) 261 % of control. In addition, the T/C (dose: 35.0 mg/kg/injection, schedule: Q01DX005 (ip), vehicle: water) was 290 % of control.

On to `CC(C)CC(=O)Cc1nc2n(c1O)C(=N)N=N2`, for which the T/C runs as follows: (dose: 60.0 mg/kg/injection, schedule: Q01DX005 (ip), vehicle: saline) 105 % of control; (dose: 120.0 mg/kg/injection, schedule: Q01DX005 (ip), vehicle: saline) 98 % of control; (dose: 240.0 mg/kg/injection, schedule: Q01DX005 (ip), vehicle: saline) 110 % of control.

As to `Cc1ccnc(N=C2N=C(Nc3cc(C)ccn3)c3ccccc32)c1`, the T/C by setting is: (dose: 6.25 mg/kg/injection, schedule: Q01DX009 (ip), vehicle: saline with Tween-80) 93 % of control; (dose: 12.5 mg/kg/injection, schedule: Q01DX009 (ip), vehicle: saline with Tween-80) 88 % of control; under setting [13], 99 % of control; under setting [2], 91 % of control; under setting [3], 90 % of control.

For the compound `O=c1c2ccccc2ncn1C12CC3CC(CC(C3)C1)C2`, the T/C runs as follows: (dose: 100.0 mg/kg/injection, schedule: Q04DX002 (ip), vehicle: Klucel (hydroxypropylcellulose) (HPC)) 105 % of control; (dose: 200.0 mg/kg/injection, schedule: Q04DX002 (ip), vehicle: Klucel (hydroxypropylcellulose) (HPC)) 100 % of control; (dose: 400.0 mg/kg/injection, schedule: Q04DX002 (ip), vehicle: Klucel (hydroxypropylcellulose) (HPC)) 100 % of control.
